Test: RAL depletion by compounds in rod outer segment preparation
Assay type: biochemical, bovine
Settings: rod outer segment preparation containing 64 μM opsin at 37° C.; for Kapp, apparent equilibrium constant of RAL depletion / kapp, apparent second order rate constant of RAL depletion: nominal starting drug 1.00 mM, RAL 60 μM; for ΔGapp, apparent free energy change of RAL depletion: ΔGapp=−RT ln Kapp
Procedure: The parameters associated with the RAL depletion chemistry are as follows:
[drawing 47] kapp: apparent second order rate constant of RAL depletion by drug. Kapp: apparent equilibrium constant of RAL depletion by drug.
[formula] ΔGapp: apparent free energy change of RAL depletion by drug. ΔGapp=−RT ln Kapp (2) Kring: equilibrium constant of tautomerism from imine to oxaminal (ring closed).
Frozen bovine rod outer segment preparation (64 μM of opsin) is thawed and vortexed thoroughly. A 200 μL aliquot of this sample is transferred into a 0.5 mL Eppendorf tube. To it is added 10 μL of 20 mM drug stock solution in EtOH, and the mixture is vortexed for 1 min. The tube is incubated at 37° C. in a Thermo Scientific microprocessor controlled 280 series water bath for 3 min before 5 μL freshly prepared 2.4 mM RAL solution in EtOH is added (the nominal starting concentrations of drug and RAL are 1.00 mM and 60 μM, respectively). After vortexing for 1 min, the tube is incubated at 37° C. over time. Aliquots of the reaction mixture (25 μL each) are taken periodically, and added onto 10 mg of solid NaBH4 in a 0.5 mL Eppendorf tube. To the latter is added carefully 400 μL of 2:1 (v/v) EtOH/HOAc. The reduction mixture is vortexed for 1 min and centrifuged. The supernatant is separated, and analyzed by HPLC using a standard HPLC method:
Solvent A: 0.05% HCOOH/95% HPLC grade water/5% HPLC grade MeCN
Solvent B: 0.05% HCOOH HPLC grade MeCN
Detector wavelengths: 329 and 250 nm
Reference wavelength: 400 nm
The RAL depletion percentages are calculated by normalization of ROL and Re-RAL-drug peak integrals, which are then plotted against reaction time. Least squares fit of the RAL depletion plot according to pseudo-first order kinetics yields observed first order rate constant kobsd, and kapp is calculated according to kobsd=kapp[drug]. Kapp is calculated from the equilibrium concentrations of free RAL, free drug and RAL-drug according to equation (1). ΔGapp was calculated according equation (2).

SMILES	Kapp, apparent equilibrium constant of RAL depletion	kapp, apparent second order rate constant of RAL depletion	ΔGapp, apparent free energy change of RAL depletion
CC(C)(O)c1c(N)cc2onc(C3CC3)c2c1Cl [Compound 4, 2-(6-amino-4-chloro-3-cyclopropylbenzisoxazol-5-yl)propan-2-ol]	>2 × 10^7	31,700 M^−1·h^−1	<-41.8 kJ/mol
CC(C)(O)c1c(N)cc2nc(-c3ccccc3)oc2c1Cl [Compound 3, 2-(5-amino-7-chloro-2-phenylbenzoxazol-6-yl)propan-2-ol]	7.14×10^6	21,600 M^−1·h^−1	-40.6 kJ/mol
CC(C)(O)c1c(N)cc2c(C3CC3)noc2c1Cl [Compound 5, 2-(5-amino-7-chloro-3-cyclopropylbenzisoxazol-6-yl)propan-2-ol]	>2 × 10^7	35,300 M^−1·h^−1	<-41.8 kJ/mol
CC(C)(O)c1cc2oc(-c3ccccc3)nc2cc1N [reference compound]	1.25 × 10^6	25,500 M^−1·h^−1	-36 kJ/mol
CC(C)(O)c1c(N)cc(Cl)c2c(C3CC3)noc12 [Compound 6, 2-(6-amino-4-chloro-3-cyclopropylbenzisoxazol-7-yl)propan-2-ol]	3.35×10^6	12,700 M^−1·h^−1	-38.5 kJ/mol
Cc1ccc(-c2nc3cc(N)c(C(C)(C)O)c(Cl)c3o2)cc1 [Compound 2, 2-(5-amino-7-chloro-2-p-tolylbenzoxazol-6-yl)propan-2-ol]	2.29×10^6	24,700 M^−1·h^−1	-37.7 kJ/mol
CC(C)(O)c1nc2ccc(Cl)cc2cc1N [reference compound]	1.55 × 10^5	3,570 M^−1·h^−1	-31 kJ/mol
